How the values were obtained:
[1] = molecular target: T1, murine Aurora Kinase 2 (mAur2) (Mus musculus, UniProt P97477); experiment: murine Aurora Kinase 2 (mAur2) biochemical Scintillation Proximity Assay; details: SPA, biotinylated Peptide 830, 1 μM ATP, 20 nM His-tagged mAur2
T1 construct: N-terminal His-tagged mAur2 (amino acids 98-395; DRT, Protein Sciences); His (N); made in house
T1 sequence (P97477 98-395): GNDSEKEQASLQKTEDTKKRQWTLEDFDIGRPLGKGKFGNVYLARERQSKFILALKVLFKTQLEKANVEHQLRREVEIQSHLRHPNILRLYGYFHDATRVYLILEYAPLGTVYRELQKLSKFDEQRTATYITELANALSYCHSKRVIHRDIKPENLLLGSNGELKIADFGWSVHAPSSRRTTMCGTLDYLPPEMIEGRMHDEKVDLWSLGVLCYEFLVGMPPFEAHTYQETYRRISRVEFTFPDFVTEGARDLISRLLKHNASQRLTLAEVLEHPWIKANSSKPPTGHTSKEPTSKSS
Description: (§1) Using a Scintillation Proximity Assay (SPA) format, the murine Aurora Kinase 1 (mAur1) and murine Aurora Kinase 2 (mAur2) biochemical assay measures the ability of mAur2 to phosphorylate the substrate, biotinylated Peptide 830 (DRT, Protein Sciences). Once radiolabeled by the enzyme, the biotinylated substrate is captured on streptavidin-coated SPA beads and the radioactivity, in proximity to the SPA beads, is measured. For the generation of IC50 curves, the reaction was performed in 96-well isoplates (Wallac 1450-514) under the following conditions: a 10 mM stock solution of compound (in 100% dimethylsulfoxide; DMSO) was diluted 10 fold in 100% DMSO. Compounds were then serially diluted, 1:5, for an eight point dose curve, in 100% DMSO. A volume of 1 μL of the diluted compound was added to the reaction buffer that consisted of 25 mM HEPES pH 7.5, 1 mM MnCl2, 1 mM MgCl2, 1 mM DTT, 0.01% Tween20. A mixture with a final concentration per well of 1 μM cold ATP, 0.1 μCi ^33P-ATP (Amersham AH9968) and 1 μM biotinylated Peptide 830 was then added. The reaction was initiated with the addition of either recombinant, GST-tagged mAur 1 (amino acids 67-345) that was co-expressed with human INCENP (amino acids 704-919) (DRT, Protein Sciences) at a final concentration of 12 nM or N-terminal His-tagged mAur2 (amino acids 98-395; DRT, Protein Sciences) at a final concentration of 20 nM. The final reaction volume in each well was 100 μL and the final compound concentration ranged from 10 μM-[…] in 1% DMSO. The reaction mixture was allowed to incubate for 1-2 hours with gentle agitation at 25° C. To terminate the reaction, streptavidin-coated SPA beads (Amersham RPNQ0007; 50 μL of 0.5 mg beads dissolved in 165 mM EDTA) were then added to each well and incubation proceeded for an additional 15 minutes at 25° C. The plate was then centrifuged for ten minutes at 2000 rpm. Phosphorylation of the peptide substrate was measured using a Wallac 1450 Microbeta Plus Liquid Scintillation Counter.

[2] = molecular target: T2, murine Aurora Kinase 1 (mAur1) (Mus musculus, UniProt O70126); experiment: murine Aurora Kinase 1 (mAur1) biochemical Scintillation Proximity Assay; details: SPA, biotinylated Peptide 830, 1 μM ATP, 12 nM GST-tagged mAur 1 co-expressed with human INCENP
T2 construct: recombinant, GST-tagged mAur 1 (amino acids 67-345) that was co-expressed with human INCENP; GST; made in house
T2 sequence (O70126 67-345): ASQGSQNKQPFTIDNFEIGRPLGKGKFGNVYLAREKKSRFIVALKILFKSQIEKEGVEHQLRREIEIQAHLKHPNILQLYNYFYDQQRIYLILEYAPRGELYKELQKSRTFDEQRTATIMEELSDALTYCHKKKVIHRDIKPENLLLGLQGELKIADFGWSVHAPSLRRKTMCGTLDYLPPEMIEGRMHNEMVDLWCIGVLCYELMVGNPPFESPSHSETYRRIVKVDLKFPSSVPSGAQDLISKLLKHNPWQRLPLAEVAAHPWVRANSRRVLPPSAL
T2 sequence (Q9NQS7 704-918 partner): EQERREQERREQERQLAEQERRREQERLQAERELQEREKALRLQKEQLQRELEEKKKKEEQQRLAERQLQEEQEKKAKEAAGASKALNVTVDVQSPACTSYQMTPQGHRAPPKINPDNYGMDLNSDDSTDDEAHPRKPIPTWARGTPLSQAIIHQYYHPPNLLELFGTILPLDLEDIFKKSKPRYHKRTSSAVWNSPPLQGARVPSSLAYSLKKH
Description: as §1

Row | IC50 [1] | IC50 [2] | SMILES
1 | < 0.1 µM | < 0.1 µM | Nc1ncnn2cc(C(=O)NCC(F)(F)F)c(-c3ccc(Nc4nc5ccccc5[nH]4)cc3)c12 [Example 1, 4-amino-5-[4-(1H-benzimidazol-2-ylamino)phenyl]-N-(2,2,2-trifluoroethyl)pyrrolo[2,1-f][1,2,4]triazine-6-carboxamide]
2 | < 0.1 µM | < 0.1 µM | Nc1ncnn2cc(C(=O)NCC(F)(F)F)c(-c3ccc(Nc4nc5cc(F)cc(F)c5[nH]4)cc3)c12 [Example 6, 4-amino-5-{4-[(5,7-difluoro-1H-benzimidazol-2-yl)amino]phenyl}-N-(2,2,2-trifluoroethyl)pyrrolo[2,1-f][1,2,4]triazine-6-carboxamide]
3 | < 0.1 µM | < 0.1 µM | COc1ccc2nc(Nc3ccc(-c4c(C(=O)NCC(F)(F)F)cn5ncnc(N)c45)cc3)[nH]c2c1 [Example 8, 4-amino-5-{4-[(6-methoxy-1H-benzimidazol-2-yl)amino]phenyl}-N-(2,2,2-trifluoroethyl)pyrrolo[2,1-f][1,2,4]triazine-6-carboxamide]
4 | < 0.1 µM | < 0.1 µM | Nc1ncnn2cc(C(=O)NCC(F)(F)F)c(-c3ccc(Nc4nc5ccc(Br)cc5[nH]4)cc3)c12 [Example 9, 4-amino-5-{4-[(6-bromo-1H-benzimidazol-2-yl)amino]phenyl}-N-(2,2,2-trifluoroethyl)pyrrolo[2,1-f][1,2,4]triazine-6-carboxamide]
5 | < 0.1 µM | < 0.1 µM | Nc1ncnn2cc(C(=O)NCC(F)(F)F)c(-c3ccc(Nc4nc5cc(F)c(F)cc5[nH]4)cc3)c12 [Example 14, 4-amino-5-{4-[(5,6-difluoro-1H-benzimidazol-2-yl)amino]phenyl}-N-(2,2,2-trifluoroethyl)pyrrolo[2,1-f][1,2,4]triazine-6-carboxamide]
6 | < 0.1 µM | < 0.1 µM | Nc1ncnn2cc(C(=O)NCC(F)(F)F)c(-c3ccc(Nc4nc5cscc5[nH]4)cc3)c12 [Example 16, 4-amino-5-[4-(1H-thieno[3,4-d]imidazol-2-ylamino)phenyl]-N-(2,2,2-trifluoroethyl)pyrrolo[2,1-f][1,2,4]triazine-6-carboxamide]
7 | < 0.1 µM | < 0.1 µM | Cc1cccc2nc(Nc3ccc(-c4c(C(=O)NCC(F)(F)F)cn5ncnc(N)c45)cc3)[nH]c12 [Example 22, 4-amino-5-{4-[(7-methyl-1H-benzimidazol-2-yl)amino]phenyl}-N-(2,2,2-trifluoroethyl)pyrrolo[2,1-f][1,2,4]triazine-6-carboxamide]
8 | < 0.1 µM | < 0.1 µM | Nc1ncnn2cc(C(=O)NCC(F)(F)F)c(-c3ccc(Nc4nc5ccc([N+](=O)[O-])cc5[nH]4)cc3)c12 [Example 23, 4-amino-5-{4-[(6-nitro-1H-benzimidazol-2-yl)amino]phenyl}-N-(2,2,2-trifluoroethyl)pyrrolo[2,1-f][1,2,4]triazine-6-carboxamide]
9 | < 0.1 µM | < 0.1 µM | Nc1ncnn2cc(C(=O)NCC(F)(F)F)c(-c3ccc(Nc4nc5cc(I)cnc5[nH]4)cc3)c12 [Example 25, 4-amino-5-{4-[(6-iodo-3H-imidazo[4,5-b]pyridin-2-yl)amino]phenyl}-N-(2,2,2-trifluoroethyl)pyrrolo[2,1-f][1,2,4]triazine-6-carboxamide]
10 | < 0.1 µM | < 0.1 µM | Nc1ncnn2cc(C(=O)NCC(F)(F)F)c(-c3ccc(Nc4nc5ccc(Cl)nc5[nH]4)cc3)c12 [Example 26, 4-amino-5-{4-[(5-chloro-3H-imidazo[4,5-b]pyridin-2-yl)amino]phenyl}-N-(2,2,2-trifluoroethyl)pyrrolo[2,1-f][1,2,4]triazine-6-carboxamide]
11 | < 0.1 µM | < 0.1 µM | Nc1ncnn2cc(C(=O)NCC(F)(F)F)c(-c3ccc(Nc4nc5ccc(Oc6ccccc6F)c(F)c5[nH]4)cc3)c12 [Example 39, 4-amino-5-(4-{[7-fluoro-6-(2-fluorophenoxy)-1H-benzimidazol-2-yl]amino}phenyl)-N-(2,2,2-trifluoroethyl)pyrrolo[2,1-f][1,2,4]triazine-6-carboxamide]
12 | < 0.1 µM | < 0.1 µM | Nc1ncnn2cc(C(=O)NCC(F)(F)F)c(-c3ccc(Nc4nc5ccc(Oc6cccc(F)c6)c(F)c5[nH]4)cc3)c12 [Example 40, 4-amino-5-(4-{[7-fluoro-6-(3-fluorophenoxy)-1H-benzimidazol-2-yl]amino}phenyl)-N-(2,2,2-trifluoroethyl)pyrrolo[2,1-f][1,2,4]triazine-6-carboxamide]
13 | < 0.1 µM | < 0.1 µM | Cc1cccc(Oc2ccc3nc(Nc4ccc(-c5c(C(=O)NCC(F)(F)F)cn6ncnc(N)c56)cc4)[nH]c3c2F)c1 [Example 42, 4-amino-5-(4-{[7-fluoro-6-(3-methylphenoxy)-1H-benzimidazol-2-yl]amino}phenyl)-N-(2,2,2-trifluoroethyl)pyrrolo[2,1-f][1,2,4]triazine-6-carboxamide]
14 | < 0.1 µM | < 0.1 µM | Cc1ncnc2[nH]c(Nc3ccc(-c4c(C(=O)NCC(F)(F)F)cn5ncnc(N)c45)cc3)nc12 [Example 45, 4-amino-5-{4-[(6-methyl-9H-purin-8-yl)amino]phenyl}-N-(2,2,2-trifluoroethyl)pyrrolo[2,1-f][1,2,4]triazine-6-carboxamide]
15 | < 0.1 µM | < 0.1 µM | Nc1ncnn2cc(C(=O)NCC(F)(F)F)c(-c3ccc(Nc4nc5ccc(NC6CCCCC6)nc5[nH]4)cc3)c12 [Example 48, 4-amino-5-(4-{[5-(cyclohexylamino)-3H-imidazo[4,5-b]pyridin-2-yl]amino}phenyl)-N-(2,2,2-trifluoroethyl)pyrrolo[2,1-f][1,2,4]triazine-6-carboxamide]
16 | < 0.1 µM | < 0.1 µM | Cc1ccc(Oc2ccc3nc(Nc4ccc(-c5c(C(=O)NCC(F)(F)F)cn6ncnc(N)c56)cc4)[nH]c3n2)cc1C [Example 49, 4-amino-5-(4-{[5-(3,4-dimethylphenoxy)-3H-imidazo[4,5-b]pyridin-2-yl]amino}phenyl)-N-(2,2,2-trifluoroethyl)pyrrolo[2,1-f][1,2,4]triazine-6-carboxamide]
17 | < 0.1 µM | < 0.1 µM | Nc1ncnn2cc(C(=O)NCC(F)(F)F)c(-c3ccc(Nc4nc5ccc(Sc6cccc(F)c6)nc5[nH]4)cc3)c12 [Example 50, 4-amino-5-[4-({5-[(3-fluorophenyl)thio]-3H-imidazo[4,5-b]pyridin-2-yl}amino)phenyl]-N-(2,2,2-trifluoroethyl)pyrrolo[2,1-f][1,2,4]triazine-6-carboxamide]
18 | < 0.1 µM | < 0.1 µM | CCCNc1ccc2nc(Nc3ccc(-c4c(C(=O)NCC(F)(F)F)cn5ncnc(N)c45)cc3)[nH]c2n1 [Example 55, 4-amino-5-(4-{[5-(propylamino)-3H-imidazo[4,5-b]pyridin-2-yl]amino}phenyl)-N-(2,2,2-trifluoroethyl)pyrrolo[2,1-f][1,2,4]triazine-6-carboxamide]
19 | < 0.1 µM | < 0.1 µM | Nc1ncnn2cc(C(=O)NCC(F)(F)F)c(-c3ccc(Nc4nc5cc6c(cc5[nH]4)OC(F)(F)O6)c(F)c3)c12 [Example 60, 4-amino-5-{4-[(2,2-difluoro-5H-[1,3]dioxolo[4,5-f]benzimidazol-6-yl)amino]-3-fluorophenyl}-N-(2,2,2-trifluoroethyl)pyrrolo[2,1-f][1,2,4]triazine-6-carboxamide]
20 | < 0.1 µM | < 0.1 µM | Nc1ncnn2cc(C(=O)O)c(-c3ccc(Nc4nc5cc(F)cc(F)c5[nH]4)cc3)c12 [Example 71, 4-amino-5-{4-[(5,7-difluoro-1H-benzimidazol-2-yl)amino]phenyl}pyrrolo[2,1-f][1,2,4]triazine-6-carboxylic acid]
21 | < 0.1 µM | < 0.1 µM | CCNC(=O)c1cn2ncnc(N)c2c1-c1ccc(Nc2nc3cc(F)cc(F)c3[nH]2)cc1 [Example 73, 4-amino-5-{4-[(5,7-difluoro-1H-benzimidazol-2-yl)amino]phenyl}-N-ethylpyrrolo[2,1-f][1,2,4]triazine-6-carboxamide]

— patent US8338594B2, “Pyrrolotriazine derivatives useful for treating cancer through inhibition of aurora kinase” (Bayer HealthCare LLC, priority 2005, dated 2012)
